Test results: the NIST ThermoML archive (doi:10.1021/je100610v)
± gives the expanded uncertainty stated by the source.

Legend:
[1] = molar heat capacity at constant pressure; details: 101 kPa, Liquid
[2] = 101 kPa, Liquid; for speed of sound: Pulse-echo method
[3] = xn = mol fraction of the nth substance listed; details: 101 kPa, Liquid, x2 = 0; for speed of sound: Pulse-echo method

ClCCCCCCCl [1,6-dichlorohexane]
Details	mass density [kg/m3]	molar heat capacity at constant pressure [J/K/mol]	speed of sound [m/s]
[1], 293.15 K	–	239.21 ± 1.9	–
[1], 294.15 K	–	239.5 ± 1.9	–
[1], 295.15 K	–	239.69 ± 1.9	–
[1], 296.15 K	–	240.02 ± 1.9	–
[1], 297.15 K	–	240.35 ± 1.9	–
[1], 298.15 K	–	240.64 ± 1.9	–
[1], 299.15 K	–	240.85 ± 1.9	–
[1], 300.15 K	–	241.15 ± 1.9	–
[1], 301.15 K	–	241.46 ± 1.9	–
[1], 302.15 K	–	241.8 ± 1.9	–
[1], 303.15 K	–	242.06 ± 1.9	–
[1], 304.15 K	–	242.34 ± 1.9	–
[1], 305.15 K	–	242.62 ± 1.9	–
[1], 306.15 K	–	242.83 ± 1.9	–
[1], 307.15 K	–	243.21 ± 1.9	–
[1], 308.15 K	–	243.49 ± 1.9	–
[1], 309.15 K	–	243.73 ± 1.9	–
[1], 310.15 K	–	244 ± 1.9	–
[1], 311.15 K	–	244.35 ± 1.9	–
[1], 312.15 K	–	244.68 ± 1.9	–
[1], 313.15 K	–	244.91 ± 1.9	–
[2], 293.01 K	–	–	1337.8 ± 2.1
[2], 293.15 K	1068.33 ± 1.3	–	–
[2], 298.15 K	1063.61 ± 1.2	–	–
[2], 298.18 K	–	–	1319.7 ± 2.1
[2], 303.15 K	1058.87 ± 1.2	–	1302.4 ± 2.1
[2], 308.14 K	–	–	1285 ± 2.1
[2], 308.15 K	1054.14 ± 1.2	–	–
[2], 313.15 K	1049.39 ± 1.2	–	–
[2], 313.23 K	–	–	1267.4 ± 2.1

CCCCCCC [heptane]
[2]
Details	mass density [kg/m3]	speed of sound [m/s]
292.7 K	–	1154.1 ± 0.77
293.15 K	683.79 ± 0.93	–
298 K	–	1131.1 ± 0.76
298.15 K	679.56 ± 0.94	–
302.98 K	–	1109.5 ± 0.75
303.15 K	675.3 ± 0.95	–
308.06 K	–	1087.4 ± 0.75
308.15 K	671.02 ± 0.96	–
313.15 K	666.71 ± 0.97	–
313.45 K	–	1064.3 ± 0.74

CCCCCCC [heptane] + ClCCCCCCCl
[3]
Details	mass density [kg/m3]	speed of sound [m/s]
292.7 K	–	1154.1 ± 0.77
293.15 K	683.79 ± 0.93	–
298 K	–	1131.1 ± 0.76
298.15 K	679.56 ± 0.94	–
302.98 K	–	1109.5 ± 0.75
303.15 K	675.3 ± 0.95	–
308.06 K	–	1087.4 ± 0.75
308.15 K	671.02 ± 0.96	–
313.15 K	666.71 ± 0.97	–
313.45 K	–	1064.3 ± 0.74
